# Data: patent publication US20100166854A1, “ELECTROSPUN MATRICES FOR DELIVERY OF HYDROPHILIC AND LIPOPHILIC COMPOUNDS” (priority 2006, published 2010)
# Where a name gives a salt, the structure may show the parent alone.
# Experiments:
# [1] = Drug release from electrospun PLGA or PLLA fibers in Franz diffusion cells (Example 2); format: physicochemical; conditions: PBS 37° C.
# Description: Poly(lactide-co-glycolide) (50:50) (PLGA) or poly(L-lactide) (PLLA) was dissolved in hexafluoroisopropanol (HFIP) and gently shaken for 3 hours till the polymer was completely dissolved. To this a solution of LH or mupirocin in HFIP was slowly added without any visible precipitation and shaken. The homogeneous drug/polymer solution was then electrospun as per the following parameters on a rotating mandrel. Differential Scanning Calorimetry (DSC) was conducted on the fibers to study drug inclusion. The dried scaffolds were sectioned into uniform weight discs and placed into Franz diffusion cells (Permegear Inc., Bethlehem, Pa.) with phosphate buffered saline at 37° C. rotated at 600 rpm. Samples were withdrawn at specific times and analyzed by HPLC. An equivalent amount of fresh PBS was replaced each time.
# [2] = tested on: mupirocin-sensitive bacteria; conditions: all the strains of mupirocin-sensitive bacteria; cited from earlier work
# [3] = tested on: Staphylococcus aureus ATCC 25923; conditions: 5 μg mupirocin disc, interpretative criteria; cited from earlier work
SMILES,"LH released ([1]; within 48 hrs, PLGA 20% fibers, LH 100% w/v of polymer) [%]","LH burst release ([1]; within the first hour, PLGA 20% fibers, LH 100% w/v of polymer) [%]",MIC [2] [µg/mL],"mupirocin cumulative release ([1]; in the next 72 hours, PLLA 15% fibers, mupirocin 25% w/v of polymer) [wt %]","mupirocin initial burst release ([1]; within an hour, PLLA 15% fibers, mupirocin 25% w/v of polymer) [wt %]",zone diameter considered acceptable [3] [mm]
"CCN(CC)CC(=O)Nc1c(C)cccc1C [LH, Lidocaine hydrochloride]",92,80,–,–,–,–
C/C(=C\C(=O)OCCCCCCCCC(=O)O)C[C@@H]1OC[C@H](C[C@@H]2O[C@H]2[C@@H](C)[C@H](C)O)[C@@H](O)[C@H]1O [mupirocin],–,–,0.06 to 0.5,70,36,22 to 27
